The results in this text go back to ChEMBL document CHEMBL1139487, “Discovery of corticotropin releasing factor 2 receptor selective sauvagine analogues for treatment of skeletal muscle atrophy” (J Med Chem, 2005).

In test [1] the test system is Mus musculus. Kind of test: In vivo percentage inhibition against casting induced tibialis anterior mass loss in mouse at a dosage of 30 ug/kg/day. The test is classed as functional.
Test [2] has as its system Mus musculus. Kind of test: In vivo percentage inhibition against casting induced tibialis anterior mass loss in mouse at a dosage of 300 ug/kg/day. To be noted: read-out: Inhibition. It counts as functional.
The target of test [3] is T1, Corticotropin-releasing factor receptor 1 (Mus musculus) (UniProt P35347).
T1 sequence (whole entry): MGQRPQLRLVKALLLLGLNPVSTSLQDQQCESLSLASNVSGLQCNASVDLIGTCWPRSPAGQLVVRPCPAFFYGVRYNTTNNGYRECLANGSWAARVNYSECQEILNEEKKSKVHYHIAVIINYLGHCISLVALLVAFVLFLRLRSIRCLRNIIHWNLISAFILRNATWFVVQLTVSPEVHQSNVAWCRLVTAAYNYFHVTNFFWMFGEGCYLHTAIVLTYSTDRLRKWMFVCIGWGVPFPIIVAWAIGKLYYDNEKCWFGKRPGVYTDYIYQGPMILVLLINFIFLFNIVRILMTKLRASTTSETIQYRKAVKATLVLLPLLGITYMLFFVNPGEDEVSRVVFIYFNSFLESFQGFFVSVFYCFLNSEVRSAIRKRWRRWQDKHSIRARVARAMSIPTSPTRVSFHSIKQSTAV
Kind of test: In vitro agonistic activity against mouse corticotropin releasing factor 1 receptor. The test is classed as functional.

For test [4], the species on record is Mus musculus. Description: Selectivity ratio of EC50s for mouse corticotropin releasing factor receptors 1 and 2.
Test [5] deals with Corticotropin-releasing factor receptor 2 (Mus musculus) (UniProt Q60748). Description: In vitro agonistic activity against mouse corticotropin releasing factor 2 receptor. The test is classed as functional.
The subject of test [6] is Mus musculus. Description: In vivo percentage inhibition against casting induced tibialis anterior mass loss in mouse at a dosage of 100 ug/kg/day. It counts as functional.
For test [7], the system named is Mus musculus. Description: In vivo percentage inhibition against casting induced tibialis anterior mass loss in mouse at a dosage of 10 ug/kg/day. The test is classed as functional.
Test [8] has as its target Corticotropin-releasing factor receptor 2 (Mus musculus, UniProt Q60748). Description: In vitro effective concentration for mouse corticotropin releasing factor 2 receptor.
Test [9] addresses T2, Corticotropin-releasing factor receptor 1 (Mus musculus, UniProt P35347).
T2 sequence (P35347 whole entry): T1 sequence (whole entry)
Kind of test: In vitro effective concentration for mouse corticotropin releasing factor 1 receptor.

pEC50: −log10 of the molar value.

Chain of Corticotropin-releasing factor receptor 2 (Mus musculus) (Q60748 whole entry): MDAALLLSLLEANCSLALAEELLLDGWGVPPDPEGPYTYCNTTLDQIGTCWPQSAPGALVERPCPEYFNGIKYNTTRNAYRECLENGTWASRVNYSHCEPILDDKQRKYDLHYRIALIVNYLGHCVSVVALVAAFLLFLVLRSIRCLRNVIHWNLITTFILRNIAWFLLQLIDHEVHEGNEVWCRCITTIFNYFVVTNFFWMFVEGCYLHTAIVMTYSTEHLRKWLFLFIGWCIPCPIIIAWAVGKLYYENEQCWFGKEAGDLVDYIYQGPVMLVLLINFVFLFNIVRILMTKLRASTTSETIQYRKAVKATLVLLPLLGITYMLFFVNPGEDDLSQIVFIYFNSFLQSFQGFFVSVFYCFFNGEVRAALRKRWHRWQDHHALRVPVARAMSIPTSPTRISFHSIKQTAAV
Chain of Corticotropin-releasing factor receptor 2 (Q60748 whole entry): as above

`CC[C@H](C)[C@H](NC(=O)[C@@H](NC(=O)[C@H](CC(=O)O)NC(=O)[C@H](CC(C)C)NC(=O)[C@H](CC(C)C)NC(=O)[C@H](CC(C)C)NC(=O)[C@H](CCCN=C(N)N)NC(=O)[C@H](CC(N)=O)NC(=O)[C@H](CC(N)=O)NC(=O)[C@H](C)NC(=O)[C@H](C)NC(=O)[C@H](CCC(N)=O)NC(=O)[C@H](CCC(N)=O)NC(=O)[C@H](CCCCN)NC(=O)[C@H](CCC(=O)O)NC(=O)[C@H](CCCCN)NC(=O)[C@H](CCC(=O)O)NC(=O)[C@H](CCC(N)=O)NC(=O)[C@H](CCCCN)NC(=O)[C@H](CCC(=O)O)NC(=O)[C@@H](NC(=O)[C@H](CCC(=O)O)NC(=O)[C@@H](NC(=O)[C@H](CCSC)NC(=O)[C@H](CCCCN)NC(=O)[C@H](CCCN=C(N)N)NC(=O)[C@H](CC(C)C)NC(=O)[C@H](CC(C)C)NC(=O)[C@H](CCC(N)=O)NC(=O)[C@H](Cc1ccccc1)NC(=O)[C@@H]1CCCN1C(=O)[C@H](CC(C)C)NC(=O)[C@H](CC(=O)O)NC(=O)[C@@H](NC(=O)[C@H](CO)NC(=O)[C@@H](NC(=O)[C@@H]1CCCN1C(=O)[C@@H]1CCCN1C(=O)CNC(=O)[C@@H]1CCC(=O)N1)[C@@H](C)CC)[C@@H](C)CC)[C@@H](C)CC)[C@@H](C)CC)[C@@H](C)O)C(=O)O` returned an inhibition in vivo at 0.03 mg/kg/day in the test on Mus musculus [1] of 58%. In addition, the inhibition in vivo at 0.3 mg/kg/day in the test with Mus musculus [2] amounted to 50%. Also, the Emax worked out at 64% in [3] and 100% in test [5]. The Selectivity in the test listed under Mus musculus [4] came to 62. Moreover, in the test on Mus musculus [6], the inhibition in vivo at 0.1 mg/kg/day was found to be 46%.

In the test on Mus musculus [1], `CC[C@H](C)[C@H](NC(=O)[C@@H](NC(=O)[C@H](CC(=O)O)NC(=O)[C@H](CC(C)C)NC(=O)[C@H](CC(C)C)NC(=O)[C@H](CC(C)C)NC(=O)[C@H](CCCN=C(N)N)NC(=O)[C@H](CC(N)=O)NC(=O)[C@H](CC(N)=O)NC(=O)[C@H](C)NC(=O)[C@H](C)NC(=O)[C@H](CCC(N)=O)NC(=O)[C@H](CCC(N)=O)NC(=O)[C@H](CCCCN)NC(=O)[C@H](CCC(=O)O)NC(=O)[C@H](CCCCN)NC(=O)[C@H](CCC(=O)O)NC(=O)[C@H](CCC(N)=O)NC(=O)[C@H](CCCCN)NC(=O)[C@H](CCC(=O)O)NC(=O)[C@@H](NC(=O)[C@H](CCC(=O)O)NC(=O)[C@@H](NC(=O)[C@H](CCSC)NC(=O)[C@H](CCCCN)NC(=O)[C@H](CCCN=C(N)N)NC(=O)[C@H](CC(C)C)NC(=O)[C@H](CC(C)C)NC(=O)[C@H](CC(C)C)NC(=O)[C@@H](NC(=O)[C@@H]1CCCN1C(=O)[C@H](CC(C)C)NC(=O)[C@H](CC(=O)O)NC(=O)[C@@H](NC(=O)[C@H](CO)NC(=O)[C@@H](NC(=O)[C@@H]1CCCN1C(=O)[C@@H]1CCCN1C(=O)CNC(=O)[C@@H]1CCC(=O)N1)[C@@H](C)CC)[C@@H](C)CC)[C@@H](C)CC)[C@@H](C)CC)[C@@H](C)CC)[C@@H](C)O)C(=O)O` returned an inhibition in vivo at 0.03 mg/kg/day of 66%. For the same compound, the Emax came out at 72% in test [3] and 88% in test [5]. The Selectivity in the test filed under Mus musculus [4] was > 64. In addition, the inhibition in vivo at 0.01 mg/kg/day in the test with Mus musculus [7] stood at 10%. The same compound returned an inhibition in vivo at 0.1 mg/kg/day with Mus musculus [6] of 91%. Besides, the figures for the pEC50 in [8] and in test [9] were 7.81 and < 6.00, respectively.

The Emax is the size of the effect at its maximum, as opposed to the concentration needed. By pEC50 is commonly meant −log10 of the EC50, conventionally taken in molar units. Lower therefore signals a high EC50.
